The target in series [1] is Mast/stem cell growth factor receptor Kit (Homo sapiens, UniProt P10721). The experiment in a line: Inhibition of cKit.
For the next series, the system named is THP-1. The experiment in a line: Inhibition of LPS-induced TNFalpha production in human THP1 cells. It is filed as functional, cell-based.
Series [2] concerns the target Mitogen-activated protein kinase 14 (Homo sapiens, UniProt Q16539).
For series [3], the target named is Mitogen-activated protein kinase 10 (Homo sapiens, UniProt P53779). Briefly: Inhibition of JNK3.
For series [4], the target named is Mitogen-activated protein kinase 8 (Homo sapiens, UniProt P45983). Briefly: Inhibition of JNK1.
In series [5] the target is Mitogen-activated protein kinase 9 (Homo sapiens, UniProt P45984). The experiment in a line: Inhibition of JNK2.
In series [6] the target is Tyrosine-protein kinase Lck (Homo sapiens, UniProt P06239).
A further series has as its system Blood. Briefly: Inhibition of TNF-alpha-induced IL8 production in human whole blood cells. It is filed as functional, cell-based.
Series [7] addresses Vascular endothelial growth factor receptor 2 (Homo sapiens, UniProt P35968).
Series [8] in a line: Clearance in Sprague-Dawley rat 2 mg/kg, iv. The class given is ADME, organism-based. More on the design: dose 2 mg/kg, route intravenous. The note with it: in vivo.
Series [9] can be described thus: Inhibition of PDGFR.
Series [10] deals with Rattus norvegicus. Briefly: Antiinflammatory activity against collagen-induced arthritis Lewis rat model assessed as area under the paw swelling curve at 0.04 mg/kg, po relative to control. It is filed as functional, organism-based. More on the design: dose 0.04 mg/kg.
Series [11] in a line: Oral bioavailability in Sprague-Dawley rat 10 mg/kg. It is filed as ADME, organism-based. The note with it: in vivo.
Series [12] is described as follows: AUC (0 to infinity) in Sprague-Dawley rat 10 mg/kg, po. It is filed as ADME, organism-based. Set-up: dose 10 mg/kg, route oral, time infinity. The following applies: plasma.
Series [13] has as its target Tyrosine-protein kinase Lyn (Homo sapiens, UniProt P07948). The experiment in a line: Inhibition of Lyn.
A short description of series [14]: Half life in Sprague-Dawley rat 2 mg/kg, iv. The class given is ADME, organism-based. More on the design: dose 2 mg/kg, route intravenous. The following applies: in vivo.
The species entered for series [15] is Rattus norvegicus. The experiment in a line: Inhibition of LPS-induced TNFalpha production in Lewis rat. The class given is functional.
In series [16] the test system is Rattus norvegicus. The experiment in a line: Antiinflammatory activity against collagen-induced arthritis in po dosed Lewis rat model assessed as inhibition of paw swelling. The class given is functional.
The nature of series [17]: Volume of distribution at steady state in Sprague-Dawley rat 2 mg/kg, iv. It is filed as ADME, organism-based. Set-up: dose 2 mg/kg, route intravenous. The note with it: in vivo, read-out: Vdss.
A short description of series [18]: Permeability from apical to basolateral side of human Caco-2 cells. The class given is ADME, cell-based. (Passage across Caco-2 layers is used to estimate intestinal permeability.)
The nature of series [19]: Oral bioavailability in Sprague-Dawley rat 1 mg/kg. The note with it: in vivo. The class given is ADME, organism-based.
Series [20] is described as follows: Clearance in Sprague-Dawley rat 1 mg/kg, iv. The class given is ADME, organism-based. Set-up: dose 1 mg/kg, route intravenous. The following applies: in vivo.
Series [21] in a line: AUC (0 to infinity) in Sprague-Dawley rat 1 mg/kg, po. The class given is ADME, organism-based. More on the design: time infinity, dose 1 mg/kg, route oral. The note with it: plasma.
A short description of series [22]: Half life in Sprague-Dawley rat 1 mg/kg, iv. It is filed as ADME, organism-based. Set-up: dose 1 mg/kg, route intravenous. The following applies: in vivo.
The nature of series [23]: Volume of distribution at steady state in Sprague-Dawley rat 1 mg/kg, iv. The class given is ADME, organism-based. More on the design: dose 1 mg/kg, route intravenous. The note with it: in vivo, read-out: Vdss.
The nature of series [24]: Permeability from basolateral to apical side of human Caco-2 cells. It is filed as ADME, cell-based.

Each structure is given as a SMILES string.

Tyrosine-protein kinase Lck, sequence (P06239 whole entry): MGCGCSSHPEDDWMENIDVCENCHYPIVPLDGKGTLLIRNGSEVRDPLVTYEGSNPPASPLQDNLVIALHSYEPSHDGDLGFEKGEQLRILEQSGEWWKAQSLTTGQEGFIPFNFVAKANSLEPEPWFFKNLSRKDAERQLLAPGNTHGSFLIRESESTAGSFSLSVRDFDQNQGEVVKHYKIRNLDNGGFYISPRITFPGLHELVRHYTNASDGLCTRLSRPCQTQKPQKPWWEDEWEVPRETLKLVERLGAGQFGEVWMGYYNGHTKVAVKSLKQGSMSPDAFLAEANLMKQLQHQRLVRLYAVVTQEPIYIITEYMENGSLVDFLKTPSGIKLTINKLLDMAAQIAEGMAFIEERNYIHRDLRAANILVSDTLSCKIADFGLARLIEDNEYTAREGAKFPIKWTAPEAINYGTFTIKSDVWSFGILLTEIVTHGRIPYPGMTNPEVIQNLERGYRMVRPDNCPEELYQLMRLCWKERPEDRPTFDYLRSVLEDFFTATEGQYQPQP
Mast/stem cell growth factor receptor Kit, sequence (P10721 whole entry): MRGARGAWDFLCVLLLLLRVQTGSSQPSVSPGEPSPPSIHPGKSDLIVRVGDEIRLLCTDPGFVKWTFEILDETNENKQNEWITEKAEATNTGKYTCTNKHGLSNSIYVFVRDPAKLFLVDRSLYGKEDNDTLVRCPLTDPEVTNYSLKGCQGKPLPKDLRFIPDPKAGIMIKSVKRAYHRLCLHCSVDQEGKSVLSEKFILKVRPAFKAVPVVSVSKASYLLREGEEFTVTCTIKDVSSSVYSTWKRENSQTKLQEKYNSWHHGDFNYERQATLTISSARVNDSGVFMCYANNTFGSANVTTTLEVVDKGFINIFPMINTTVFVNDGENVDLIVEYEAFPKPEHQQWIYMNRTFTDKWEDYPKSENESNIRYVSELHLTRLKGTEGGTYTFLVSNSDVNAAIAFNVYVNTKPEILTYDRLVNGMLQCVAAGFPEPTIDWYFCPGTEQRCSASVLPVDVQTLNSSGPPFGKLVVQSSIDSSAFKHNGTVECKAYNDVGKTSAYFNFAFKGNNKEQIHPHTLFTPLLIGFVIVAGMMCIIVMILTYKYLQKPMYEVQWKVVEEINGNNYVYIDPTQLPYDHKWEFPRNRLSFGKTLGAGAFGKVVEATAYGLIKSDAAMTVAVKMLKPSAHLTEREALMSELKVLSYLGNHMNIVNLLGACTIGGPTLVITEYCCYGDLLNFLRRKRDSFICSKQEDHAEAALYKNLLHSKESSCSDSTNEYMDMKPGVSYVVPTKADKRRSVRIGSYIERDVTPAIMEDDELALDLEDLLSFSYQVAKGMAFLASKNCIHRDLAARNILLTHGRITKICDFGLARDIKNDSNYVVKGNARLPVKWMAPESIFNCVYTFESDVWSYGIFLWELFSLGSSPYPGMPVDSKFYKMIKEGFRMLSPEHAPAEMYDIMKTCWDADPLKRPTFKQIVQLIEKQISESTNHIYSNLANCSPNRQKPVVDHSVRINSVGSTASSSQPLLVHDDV
Mitogen-activated protein kinase 9, sequence (P45984 whole entry): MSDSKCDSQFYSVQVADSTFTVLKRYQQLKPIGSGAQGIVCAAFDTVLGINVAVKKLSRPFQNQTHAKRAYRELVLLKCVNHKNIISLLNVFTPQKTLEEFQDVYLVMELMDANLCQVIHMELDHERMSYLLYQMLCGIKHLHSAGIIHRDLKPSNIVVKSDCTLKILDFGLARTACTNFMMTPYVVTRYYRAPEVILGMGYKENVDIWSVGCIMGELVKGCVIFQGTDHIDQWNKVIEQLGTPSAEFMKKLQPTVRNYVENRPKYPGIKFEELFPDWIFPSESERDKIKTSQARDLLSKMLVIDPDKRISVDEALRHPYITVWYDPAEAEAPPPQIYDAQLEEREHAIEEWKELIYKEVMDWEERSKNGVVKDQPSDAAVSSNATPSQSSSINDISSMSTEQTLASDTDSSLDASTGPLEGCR
Mitogen-activated protein kinase 14, sequence (Q16539 whole entry): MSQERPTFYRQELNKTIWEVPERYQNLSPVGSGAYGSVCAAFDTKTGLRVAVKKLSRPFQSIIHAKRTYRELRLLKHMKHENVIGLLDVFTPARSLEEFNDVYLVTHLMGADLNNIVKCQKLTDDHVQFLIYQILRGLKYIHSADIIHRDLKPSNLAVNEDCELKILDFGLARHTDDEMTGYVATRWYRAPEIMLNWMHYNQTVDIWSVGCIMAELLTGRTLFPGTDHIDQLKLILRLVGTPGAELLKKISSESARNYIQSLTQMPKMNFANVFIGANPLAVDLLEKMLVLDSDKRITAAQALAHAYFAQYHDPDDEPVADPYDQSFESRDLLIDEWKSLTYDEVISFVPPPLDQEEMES
Mitogen-activated protein kinase 8, sequence (P45983 whole entry): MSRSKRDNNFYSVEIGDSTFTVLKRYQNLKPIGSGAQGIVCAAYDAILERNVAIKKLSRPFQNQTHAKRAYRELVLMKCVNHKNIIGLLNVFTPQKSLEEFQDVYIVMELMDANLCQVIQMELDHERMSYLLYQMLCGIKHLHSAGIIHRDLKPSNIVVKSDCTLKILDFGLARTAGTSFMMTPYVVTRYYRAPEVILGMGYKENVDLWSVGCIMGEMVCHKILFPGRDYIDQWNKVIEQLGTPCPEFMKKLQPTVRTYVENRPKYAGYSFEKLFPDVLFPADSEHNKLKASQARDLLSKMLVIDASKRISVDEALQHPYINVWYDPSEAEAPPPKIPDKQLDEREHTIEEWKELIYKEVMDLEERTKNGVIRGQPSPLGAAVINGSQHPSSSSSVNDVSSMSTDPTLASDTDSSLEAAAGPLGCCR
Vascular endothelial growth factor receptor 2, sequence (P35968 whole entry): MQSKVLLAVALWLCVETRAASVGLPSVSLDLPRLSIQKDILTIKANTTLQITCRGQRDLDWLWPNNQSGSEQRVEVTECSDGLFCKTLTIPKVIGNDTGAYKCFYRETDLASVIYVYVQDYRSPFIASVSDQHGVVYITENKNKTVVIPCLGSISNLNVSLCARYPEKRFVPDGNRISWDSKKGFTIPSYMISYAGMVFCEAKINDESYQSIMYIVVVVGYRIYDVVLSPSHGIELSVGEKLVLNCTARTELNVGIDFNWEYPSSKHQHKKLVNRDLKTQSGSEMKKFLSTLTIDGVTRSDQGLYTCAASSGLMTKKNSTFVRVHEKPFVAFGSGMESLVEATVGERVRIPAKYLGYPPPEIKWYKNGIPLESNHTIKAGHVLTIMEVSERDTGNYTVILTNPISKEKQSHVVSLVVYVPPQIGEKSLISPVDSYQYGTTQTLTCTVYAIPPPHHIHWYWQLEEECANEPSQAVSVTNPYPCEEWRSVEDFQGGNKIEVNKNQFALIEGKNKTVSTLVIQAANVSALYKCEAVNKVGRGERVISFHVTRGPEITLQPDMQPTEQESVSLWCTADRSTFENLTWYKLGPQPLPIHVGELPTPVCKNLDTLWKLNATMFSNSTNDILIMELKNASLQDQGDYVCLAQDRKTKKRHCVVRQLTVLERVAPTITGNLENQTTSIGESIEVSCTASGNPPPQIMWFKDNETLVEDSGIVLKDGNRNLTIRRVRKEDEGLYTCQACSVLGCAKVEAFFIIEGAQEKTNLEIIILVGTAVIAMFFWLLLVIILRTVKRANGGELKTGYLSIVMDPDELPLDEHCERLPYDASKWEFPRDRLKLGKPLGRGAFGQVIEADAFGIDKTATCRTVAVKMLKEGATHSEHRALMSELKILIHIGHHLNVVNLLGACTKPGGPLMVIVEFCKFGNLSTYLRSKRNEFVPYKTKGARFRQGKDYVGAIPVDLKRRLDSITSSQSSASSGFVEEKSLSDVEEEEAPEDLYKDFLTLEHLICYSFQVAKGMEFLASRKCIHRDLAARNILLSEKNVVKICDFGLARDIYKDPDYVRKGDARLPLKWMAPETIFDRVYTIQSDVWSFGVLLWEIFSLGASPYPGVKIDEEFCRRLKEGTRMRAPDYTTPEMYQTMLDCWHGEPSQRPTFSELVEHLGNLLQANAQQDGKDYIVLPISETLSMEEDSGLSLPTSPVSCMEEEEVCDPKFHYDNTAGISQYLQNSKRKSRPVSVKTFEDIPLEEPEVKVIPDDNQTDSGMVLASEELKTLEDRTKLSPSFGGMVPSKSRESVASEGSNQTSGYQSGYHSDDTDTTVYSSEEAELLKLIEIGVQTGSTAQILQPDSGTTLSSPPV
Mitogen-activated protein kinase 10, sequence (P53779 whole entry): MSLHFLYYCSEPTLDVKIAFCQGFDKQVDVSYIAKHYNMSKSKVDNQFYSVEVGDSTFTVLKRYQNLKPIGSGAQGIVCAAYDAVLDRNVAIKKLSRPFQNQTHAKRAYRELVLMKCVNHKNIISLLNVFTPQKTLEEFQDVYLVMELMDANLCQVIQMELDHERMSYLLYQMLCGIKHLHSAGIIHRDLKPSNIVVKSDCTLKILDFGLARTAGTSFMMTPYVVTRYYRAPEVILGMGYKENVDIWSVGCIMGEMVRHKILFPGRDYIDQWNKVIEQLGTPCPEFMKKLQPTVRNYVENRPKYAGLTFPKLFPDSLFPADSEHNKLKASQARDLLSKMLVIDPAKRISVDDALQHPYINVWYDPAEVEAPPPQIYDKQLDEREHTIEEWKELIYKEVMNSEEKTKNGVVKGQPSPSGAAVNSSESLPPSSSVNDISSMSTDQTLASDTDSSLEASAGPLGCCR
Tyrosine-protein kinase Lyn, sequence (P07948 whole entry): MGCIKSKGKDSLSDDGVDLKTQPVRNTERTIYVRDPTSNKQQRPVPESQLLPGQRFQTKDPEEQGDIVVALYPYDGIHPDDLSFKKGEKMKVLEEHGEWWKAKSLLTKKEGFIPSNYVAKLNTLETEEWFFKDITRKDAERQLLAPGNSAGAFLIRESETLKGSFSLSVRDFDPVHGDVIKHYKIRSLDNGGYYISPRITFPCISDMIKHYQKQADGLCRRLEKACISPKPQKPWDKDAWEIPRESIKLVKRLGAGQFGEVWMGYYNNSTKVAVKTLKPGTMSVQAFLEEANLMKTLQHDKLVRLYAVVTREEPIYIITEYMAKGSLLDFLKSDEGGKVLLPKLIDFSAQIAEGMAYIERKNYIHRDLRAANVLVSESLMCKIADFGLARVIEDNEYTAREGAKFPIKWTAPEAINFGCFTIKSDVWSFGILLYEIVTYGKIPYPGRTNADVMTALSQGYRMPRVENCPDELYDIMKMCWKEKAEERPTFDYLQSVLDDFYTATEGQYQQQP

On to `Cc1ccc(C(=O)NC2CC2)cc1-c1ccc2c(O[C@H](C)C(F)(F)F)nncc2c1`, for which the IC50 in series [1] was 1170 nM; in the series with THP-1, 0.9 nM; in [2], 0.8 nM; in [3] it was 9490 nM; in [4], above 10000 nM; in series [5], 4390 nM. In addition, the results for the concentration for half-maximal inhibition (IC50) (in [6]; in the series on Blood; in series [7]) were 6050 nM, 8.1 nM and 505 nM, respectively.
Regarding `Cc1ccc(C(=O)NC2CC2)cc1-c1ccc2c(O[C@@H](C)C(F)(F)F)nncc2c1`, in series [8], the clearance was 5.83 mL/min/kg. Further, the IC50 was 1060 nM in series [1]; 0.4 nM with THP-1; 1 nM in series [2]; 88 nM in series [9]; above 10000 nM in series [3]; above 10000 nM in series [4]. Moreover, the IC50 in [13] was 954 nM; in [5], 7770 nM; in [6] it was above 5000 nM; with Blood, 2.7 nM; in series [7], 2680 nM. The AUC in the series with Rattus norvegicus [10] stood at 51.1 ng·h/mL. This compound yielded a bioavailability in series [11] of 72%. The AUC(0-inf) in series [12] worked out at 21100 ng·h/mL. In addition, in series [14], the half-life was 9.9 h. Also, the results for the ED50 in the series filed under Rattus norvegicus [15] and in the series on Rattus norvegicus [16] were below 0.03 mg/kg and 0.04 mg/kg, respectively. Besides, in series [17], the Vd amounted to 4.7 L/kg.
As to `O=C(NC1CC1)c1cccc(-c2ccc3c(N4CCOCC4)nncc3c2)c1`, the results for the IC50 in series [1] and in [2] were above 8330 nM and 182 nM, respectively.
Take `Cc1ccc(C(=O)NC2CC2)cc1-c1ccc2c(-c3ccccc3C)nncc2c1`: the clearance in series [8] is 28.3 mL/min/kg. The same compound registered a bioavailability in series [11] of 40%. Moreover, the area under the curve AUC(0-inf) in series [12] came to 2330 ng·h/mL. The half-life in [14] is 1.4 h. In addition, the Vd in series [17] was 1.8 L/kg.
As for `Cc1ccc(C(=O)NC2CC2)cc1-c1ccc2c(N3CCOCC3)nncc2c1`, the Papp A→B in series [18] was found to be 10.5 ×10⁻⁶ cm/s. For the same compound, the IC50 in series [1] was 529 nM; in the series on THP-1 it was 0.7 nM; in [2] it was 1.2 nM; in series [3], above 10000 nM; in series [4], above 10000 nM; in [5] it was 9690 nM. In addition, the IC50 in [6] stood at 3810 nM; with Blood, 0.9 nM; in series [7] it was 3040 nM. Moreover, in series [19], the bioavailability is 22%. This compound gave a clearance in [20] of 28.3 mL/min/kg. In addition, in [21], the AUC(0-inf) is 124 ng·h/mL. Also, the half-life in series [22] was 4.1 h. The Vd in [23] stood at 3.5 L/kg. Also, the apparent permeability from basolateral to apical (Papp B→A) in [24] worked out at 39.8 ×10⁻⁶ cm/s.
Regarding `Cc1ccc(C(=O)NC2CC2)cc1-c1ccc2c(OC(C)C)nncc2c1`, the clearance in series [8] is 13.3 mL/min/kg. The IC50 is 421 nM in series [1]; 0.4 nM with THP-1; 0.6 nM in series [2]; above 10000 nM in series [3]; above 10000 nM in series [4]; 5950 nM in series [5]. Moreover, the values for the IC50 (in [6]; with Blood; in [7]) were 3610 nM, 1.6 nM and 1140 nM, respectively. Further, in series [11], the bioavailability is 92%. The same compound had an AUC(0-inf) in series [12] of 10900 ng·h/mL. This compound also gave a half-life in series [14] of 1.8 h. In addition, the Vd in [17] was 2.1 L/kg.
`Cc1ccc(C(=O)NC2CC2)cc1-c1ccc2c(NCCN3CCOCC3)nncc2c1` registered a Papp A→B in [18] of 0.3 ×10⁻⁶ cm/s. The compound also showed a clearance in series [8] of 20 mL/min/kg. Also, the IC50 in series [1] is 1060 nM; in the series with THP-1 it was 24.9 nM; in series [2] it was 1.9 nM; in series [3] it was above 10000 nM; in [4], above 10000 nM; in series [5] it was above 10000 nM. Moreover, the IC50 was above 10000 nM in [6], 4.3 nM in the series on Blood and 5140 nM in series [7]. The bioavailability in [11] is 1%. This compound also gave an AUC(0-inf) in [12] of 39 ng·h/mL. In addition, in series [14], the half-life was 2.3 h. Besides, the apparent permeability from basolateral to apical (Papp B→A) in series [24] amounted to 31 ×10⁻⁶ cm/s. In addition, the Vd in [17] is 2.8 L/kg.
With `Cc1ccc(C(=O)NC2CC2)cc1-c1ccc2c(N3CCOC[C@@H]3C)nncc2c1`, the clearance in series [8] was 13.3 mL/min/kg. For the same compound, the IC50 is 2010 nM in [1]; 1.1 nM in the series with THP-1; 1.1 nM in series [2]; above 10000 nM in series [3]; above 10000 nM in series [4]; 4830 nM in series [5]. Further, the IC50 is above 10000 nM in series [6], 1.2 nM with Blood and 8550 nM in series [7]. This compound displayed a bioavailability in series [11] of 57%. Further, the AUC(0-inf) in series [12] turned out to be 7090 ng·h/mL. For the same compound, the half-life in [14] was 1.3 h. In series [17], the Vd is 1.2 L/kg.
Regarding `Cc1ccc(C(=O)NC2CC2)cc1-c1ccc2c(OC(C)C)cncc2c1`, the IC50 in [1] amounted to 41 nM; in series [2], 0.6 nM.
As to `Cc1ccc(C(=O)NC2CC2)cc1-c1ccc2c(-c3ccccc3)nncc2c1`, the IC50 in series [1] is 149 nM; in the series with THP-1 it was 0.8 nM; in series [2], 2 nM; in series [3], above 10000 nM; in series [4], above 10000 nM; in [5] it was above 10000 nM. The IC50 in series [6] amounted to 1340 nM; in the series with Blood it was 3.5 nM; in series [7], 6290 nM.

One may read the IC50 as the concentration that inhibits the measured activity by half. Higher therefore signals weaker potency. In general, clearance refers to the rate of elimination divided by the concentration. A lower clearance goes with inefficient removal. A word on the bioavailability: it is the share of a dose that reaches the circulation, judged against a reference dose that is usually intravenous. As a reminder, the AUC(0-inf) is total exposure, with the tail of the curve extrapolated. A higher AUC(0-inf) goes with more exposure. Broadly, the half-life is how long it takes for the measured level to halve. The term ED50 denotes the dose at which the effect has come halfway, by size or by number of responders. By Papp A→B is commonly meant how fast a substance crosses the layer from the apical side. Read a high Papp A→B as ready permeation. In general, Papp B→A refers to how fast a substance crosses the layer from the basolateral side.

Values taken from ChEMBL document CHEMBL1140163 (J Med Chem, 2008).
